Measured values as given in patent US5780489A, “Method for treating amyotrophic lateral sclerosis” (priority 1996, dated 1998).
“Also recorded” adds a separate entry of the source. Where two headings read alike, the source gives them in different places.

How the values were obtained:
ALS patients [1] = conditions: cited from earlier work; for survival in ALS (in words): human, in vivo
[2] = system: chronic organotypic spinal cord cultures; conditions: in vitro, after SOD1 anti-sense oligonucleotides; cited from earlier work
[3] = B Olsson et al., 1988; cited from earlier work
human cells = conditions: cited from earlier work
[4] = system: rat cerebrospinal fluid (CSF); conditions: Shikama et al. 1995, cited from earlier work; for rate of uptake into rat cerebrospinal fluid: GSH versus GSH isopropyl ester
cells [5] = conditions: cited from earlier work
cells [6] = conditions: Puri and Meister, 1983; cited from earlier work
[7] = Meister et al., 1986; cited from earlier work
[8] = Meister et al., 1986; cited from earlier work; remark: listed apart in the source
[9] = OTZ pharmacokinetics (plasma elimination and oral absorption); format: in vivo, human
Experimental: The synthesis of glutathione, an endogenous antioxidant, is often limited by the supply of intracellular cysteine, one of the component amino acids of glutathione. […] Some of these patients continued taking OTZ capsules (up to 9 grams/day) for over two years.
Subjects with ALS were enrolled in a tolerability, pharmacokinetics and pharmacodynamics study of OTZ in ALS patients. In this study, glutathione and cysteine levels in whole blood and CSF and OTZ pharmacokinetics were determined in ten to twenty subjects with ALS. Blood was obtained for baseline glutathione and cysteine levels. A spinal catheter was inserted and baseline CSF samples collected for determination of glutathione and cysteine levels. OTZ (90 ml 5% OTZ injection=4500 mg OTZ) was administered by intravenous infusion through a peripheral vein over 60±10 minutes. At various time points after the start of the OTZ infusion, blood and CSF samples were drawn for determination of OTZ and glutathione levels. The following day, subjects started taking OTZ capsules (3000 mg t.i.d.) for 28 days. After 7 and 14 days of treatment with OTZ capsules, blood was drawn for analyses of safety parameters, glutathione, cysteine and OTZ levels. On the last day of the treatment period, blood and CSF samples were drawn for analysis of OTZ, glutathione, and cysteine levels. The study endpoints were tolerability, and pharmacokinetic and pharmacodynamic data. Safety was determined by clinical history and examination, quantitative neuromuscular examination and a panel of safety laboratory tests. Nine subjects completed the study and samples are analyzed. In addition, CSF was drawn from patients without severe neurological disorders and the GSH levels are analyzed and compared to the levels for ALS patients.

adverse experiences = format: in vivo, human; conditions: only minor
Description: The risk of any of these side effects occurring is small; however, should they occur, the dose of medication is reduced or discontinued entirely. However, OTZ is an experimental drug and unexpected side effects may occur.

patients with ALS = test: progression of ALS, phase II trial of OTZ and Riluzole versus Riluzole alone; format: in vivo, human; conditions: 9 months, 3000 mg p.o. t.i.d.
Experimental: 5.3. OTZ in ALS Patients: Phase II Trial
A phase II, bi-center, double-blind randomized controlled comparison trial of the efficacy of OTZ and the anti-glutamate agent, Riluzole, versus Riluzole alone in slowing of disease progression in patients with ALS (50 at each center) is performed. Patients receive treatment for 9 months. Riluzole is approved for marketing by the FDA.
The OTZ and placebo capsules are identical in appearance. Riluzole is administered as tablets obtained from the manufacturer. Riluzole is administered at 50 mg bid to all subjects. The OTZ dose is the same as used in the Phase I study, 3000 mg p.o. t.i.d. However, the final determination of OTZ dose may be modified. Half the subjects receive active OTZ capsules and the other half receive identical appearing placebo capsules.
The primary outcome measure is change in motor and pulmonary function after 9 months of experimental therapy as tested with the Tufts Quantitative Neuromuscular Exam ([…]) and FVC. The secondary outcome measure is based upon ALS Functional Rating Scores.
Analysis is done on an intention to treat basis. The primary analysis tests the difference in average slopes of arm megascores between the OTZ and Riluzole combination and Riluzole alone groups using a two-way ANOVA with treatment and center in the model, with a two-sided alpha=0.05. […]

GSH levels in rat brains = conditions: cited from earlier work
[10] = system: GSH levels in some cell types; conditions: Williamson et al. 1981; cited from earlier work
[11] = system: intracellular glutathione levels; conditions: cited from earlier work
5-oxoprolinase = conditions: cited from earlier work
cellular ischemia = conditions: H Shikama et al., 1995; cited from earlier work
[12] = system: γ-glutamyl transpeptidase; conditions: proposed by Shikama et al.; cited from earlier work
[13] = system: transgenic mice which overexpress the mutant SOD1 protein; conditions: small, but statistically significant; cited from earlier work
ALS patients [14] = conditions: two controlled studies; cited from earlier work
[15] = system: glutamate release at pre-synaptic terminals; conditions: cited from earlier work
[16] = in vivo; cited from earlier work
[17] = esterase activity absent in human plasma; cited from earlier work
[18] = by an esterase; cited from earlier work

CC(=O)N[C@@H](CS)C(=O)O [N-acetylcysteine (NAC), N-acetylcysteine]
survival in ALS (in words) (ALS patients [1]): trend towards increasing survival in ALS patients | reversal of death process in spinal cord cultures [2]: reversed | bioavailability in human studies [3]: low bioavailability

CCOC(=O)CNC(=O)[C@H](CS)NC(=O)CC[C@H](N)C(=O)O [GSH monoethylester]
entry into human cells (human cells): able to enter human cells | intracellular GSH levels in human cells (human cells): increase in GSH levels

N[C@@H](CCC(=O)N[C@@H](CS)C(=O)NCC(=O)O)C(=O)O [GSH, L-γ-glutamyl-L-cysteinylglycine]
rate of uptake into rat cerebrospinal fluid [4]: the same | effect of administration on intracellular GSH levels (cells [5]; Meister, U.S. Pat. No. 4,879,370): has not led to increased intracellular GSH levels | transport into cells (cells [5]): not transported efficiently into cells; also recorded: not efficiently transported into most animal cells | protection of cells against toxic compounds (cells [6]): can protect some cells against toxic compounds

N[C@@H](CS)C(=O)O [L-cysteine]
transport into cells (cells [5]): not transported efficiently into cells | transport into cells (cells [5]; listed as cysteine): not efficiently transported into most animal cells | oxidation at neutral pH [7]: oxidized spontaneously at neutral pH | toxicity of high extracellular levels [8]: high extracellular levels of cysteine can be toxic

O=C1N[C@H](C(=O)O)CS1 [OTZ, L-2-oxothiazolidine-4-carboxylic acid]
elimination from plasma ([9]; after oral or intravenous administration): rapidly eliminated from plasma | absorption after oral administration ([9]; oral): readily absorbed after oral administration | half-life ([9]; plasma, after oral or intravenous administration, read-out: T1/2 (elimination from plasma)): 1 to 2 h | adverse experiences associated with OTZ (adverse experiences): stomach upset, dizziness, insomnia, nausea, restlessness and headache | rate of progression of ALS (patients with ALS): slows the rate of progression of ALS | GSH levels in rat brains (GSH levels in rat brains; Anderson and Meister 1989): no effect or only slightly increased GSH levels | level of GSH in rat brains (GSH levels in rat brains; subcutaneous injections, Mesina et al. 1989): statistically significant increase in the level of GSH in rat brains | increase of GSH levels in some cell types [10]: effective in increasing GSH levels in some cell types | intracellular glutathione levels in animal models [11]: increases intracellular glutathione levels in animal models | conversion to cysteine (enzyme required) (5-oxoprolinase): requires the enzyme 5-oxoprolinase | metabolism by 5-oxo-L-prolinase (5-oxoprolinase; in vitro, in the presence of adenosine triphosphate): subjected to the action of 5-oxo-L-prolinase in the presence of adenosine triphosphate to produce S-carboxyl cysteine

CC(C)OC(=O)CNC(=O)[C@H](CS)NC(=O)CC[C@H](N)C(=O)O [GSH isopropyl ester, glutathione isopropyl ester]
rate of uptake into rat cerebrospinal fluid [4]: the same | total GSH (sum of GSH and GSH ester) in rat CSF [4]: only the ester increased the total GSH | stability in CSF ([4]; versus GSH): more stable that GSH in the CSF | protection against cellular ischemia (cellular ischemia): provide protection against cellular ischemia | affinity for γ-glutamyl transpeptidase [12]: reduced affinity

Nc1nc2ccc(OC(F)(F)F)cc2s1 [Riluzole]
prolongation of survival of ALS patients (ALS patients [1]; G Bensimon et al., 1994): 12% | survival in ALS (in words) (ALS patients [1]): extend survival in ALS; also recorded: improve survival in ALS; also recorded: small affect on survival | prolongation of lifespan in patients with ALS (ALS patients [1]; two studies, statistically significant, but small, G Bensimon et al., 1994): 18% | prolongation of survival in transgenic SOD1 mutant mice [13]: 11% | improvement in strength (ALS patients [14]): without a concomitant improvement in strength | release of glutamates at pre-synaptic terminals [15]: inhibits release of glutamates at pre-synaptic terminals | known adverse experiences associated with Riluzole therapy [16]: asthenia, fatigue and asymptomatic elevation of liver function tests

CCOC(=O)CNC(=O)[C@H](CS)NC(=O)CC[C@H](N)C(=O)OCC [GSH diethylester]
entry into human cells (human cells): even more efficiently transported into human cells than the monoester | intracellular GSH levels in human cells (human cells): increase of intracellular GSH levels | stability in human blood [17]: stable in human blood | conversion to monoethyl (glycyl) ester in rodent blood plasma [18]: readily converted to monoethyl (glycyl) ester in rodent blood plasma
